Reference: patent EP1186305A1 (Schering Aktiengesellschaft, priority 2000, dated 2002)

Experiments:
[1] = Osmolality of contrast media formulations (vapor pressure osmometer); assay type: physicochemical
Protocol: (§1) For this purpose contrast media formulation with a molar concentration of […] for monomeric compounds and of […] for dimeric compounds, equivalent to a iodine concentration of 300 mgI/mL or 189 mgBr/mL were prepared at neutral pH. After heat sterilization under standard conditions for 20 min at 120°C changes in pH and free bromine and iodine was measured. The osmolality was measured at 37°C using a Knauer vapor pressure osmometer. Viscosity of contrast media formulations was determined using a Schott capillary viscosimeter which was standardized with water.

[2] = Viscosity of contrast media formulations (capillary viscosimeter); assay type: physicochemical; conditions: formulations 0.788 (monomer) or 0.394 (dimer) mol/L
Protocol: as §1

erythrocyte morphology = assay: Influence on erythrocyte morphology in rat blood (damage index); assay type: cell-based; conditions: for Erythrocyte morphology Damage index 2 h: six parts blood to one part test substance, 2 h incubation
Protocol: Six parts by volume was mixed with one part by volume of each test substance. The mixtures were examined with and optical microscope immediately, 1 hour and 2 hours after incubation in terms of a damage index of blood cells.

[3] = Phantom studies with conventional mammography (X-ray absorption of contrast media in agar discs); conditions: 10 mm agar discs in 5 cm water phantom, film mammography
Protocol: The agar pieces were prepared in cell-culture well-plates having a diameter of 24 mm and a final height of 10 mm. After formation of solid agar the agar discs were placed in a water phantom containing 5 cm height of water. Additionally a control agar disc prepared with physiological saline instead of CM volume was added. The whole phantom was imaged with a commercial available mammograph at various energies of 30 kV, 25 and 20 kV and 140 mAs. After exposure the mammographic films were developed according to standard quality guidelines. Later the films were digitized and signal intensities of the agar discs and surrounding water background were measured with a imaging analyzing software.

male Sprague-Dawley mice = assay: Acute tolerance, approximate LD50 after single intravenous injection
From the text: (§2) The behavior of the animals and the lethality was monitored for 7 days post injection.

[4] = Pharmacokinetic profile after intravenous administration of 3H-labelled compound; assay type: in vivo, male Sprague-Dawley rats; conditions: rats
Protocol: The pharmacokinetic profile of example 4 was examined after intravenous administration of 3H-labelled example 4 to male Sprague-Dawley rats. For this purpose example 4 was labeled with tritium of a chemical concentration of 300 mg / mL and a radioactive concentration of 2.75 MBq/mL. After intravenous injection in the right jugular vein via a catheter at a dose of 600 mg EXAMPLE 4/kg blood samples of 400 µl were collected in plastic tubes at 0.083, 0.25, 0.5, 1, 2, 4, 6, 8 and 24 hours after administration. Plasma samples were obtained after blood sample centrifugation at 250 g for 10 min. After injection, the rats were transferred in metabolic cages allowing the collection of urine and faeces at different intervals. Aliquots of 100 µl of samples with blood or urine were added to 10 ml of scintillation cocktail and the radioactivity was measured by means of a Tricor-2500 TR automatic scintillation spectrometer. Faeces samples were freeze-dried for two days. They were milled and aliquots of 50 or 100 mg were taken, moistened with 1 mL water and digested with Soluene-350® and 1 mL of isopropyl alcohol at 50 °C for 24 hours. Digested faeces samples were bleached and radioactivity was measured as mentioned above. Plasma levels of example 4 and mean cumulative urinary and faecal excretion data were fitted to a two-compartment model. Curve fit and evaluation of kinetic parameters was performed on the TOP-Fit v 2.0β program.

Aqueous solubility = assay type: physicochemical
in vivo = conditions: male, mouse, iv
From the text: as §2

[5] = i.v. 600 mg/kg, two-compartment model

Row | Structure (SMILES) | Osmolality a) monomer, 0.788 mol/L, 37°C [1] [mOsm/kg water] | Viscosity (37°C) [2] [mPa·s] | influence on erythrocyte morphology compared to iodinated reference substances (erythrocyte morphology) | Erythrocyte morphology Damage index 2 h (erythrocyte morphology) | increase of the tolerability with respect to the iodinated and brominated reference compounds (male Sprague-Dawley mice) | Aqueous solubility (Aqueous solubility) [mgBr/mL] | Osmolality b) dimer, 0.394 mol/L, 37° C [1] [mOsm/kg water] | also measured
1 | CN(CC(O)CO)C(=O)c1c(Br)c(NC(=O)CO)c(Br)c(C(=O)NCC(O)CO)c1Br (centres unmarked) [Example 4, 2,4,6-tribromo-5-hydroxyacetylamino-N,N'-bis-(2,3-dihydroxypropyl)-N-methylisophthalamide] | 818 | 3.5 | substantially less influence on erythrocyte morphology than the iodinated reference substances | 0.82 | 13 - 23% | >400 |  | detectable down to concentrations [3]: 1.31 mmol/L; detectable down to concentrations, moles equivalent to mg I/mL of Iohexol [3]: 0.5 mg I/mL; in faeces measured ([4]; 24 h p.i.): 5.1 % I.D.; in the urine detected ([4]; 24 h p.i.): 63.7 % I.D.; metabolisation (bile fluid, HPLC-analysis) ([4]; bile collected via catheter in the bile duct): no metabolisation; cumulative faecal excretion ([4]; i.v. 600 mg/kg, at 24 h): 5.39 % of injected dose; cumulative urinary excretion ([4]; i.v. 600 mg/kg, at 24 h p.i.): 62.8 % of injected dose; distribution volume Vc [4, 5]: 0.26 L/kg; t½ α [4, 5]: 11.4 min; t½ β [4, 5]: 31.2 min
2 | NC(=O)c1c(Br)c(C(=O)NC(CO)C(O)CO)c(Br)c(N(CCO)C(=O)CO)c1Br (centres unmarked) [Example 14, 2,4,6-tribromo-5-[N-(2-hydroxyethyl)hydroxyacetylamino]-N-(1-hydroxymethyl-2,3-dihydroxypropyl)isophthalamide] | 500 | 3.4 | substantially less influence on erythrocyte morphology than the iodinated reference substances | 0.88 | 13 - 23% | >400 |  | 
3 | NC(=O)c1c(Br)c(C(=O)NCC(O)CO)c(Br)c(N(CC(O)CO)C(=O)CC(=O)N(CC(O)CO)c2c(Br)c(C(N)=O)c(Br)c(C(=O)NCC(O)CO)c2Br)c1Br (centres unmarked) [Example 25, N,N'-bis-[2,4,6-tribromo-5-carbamoyl-3-[N-(2,3-dihydroxypropyl)carbamoyl]phenyl]-N,N'-bis-(2,3-dihydroxypropyl)-malonamide] |  | 5.5 | substantially less influence on erythrocyte morphology than the iodinated reference substances | 0.45 | 13 - 23% | 400 | 320 | 
4 | CN(C(=O)CC(=O)N(C)c1c(Br)c(C(=O)NC(CO)C(O)CO)c(Br)c(C(=O)NC(CO)C(O)CO)c1Br)c1c(Br)c(C(=O)NC(CO)C(O)CO)c(Br)c(C(=O)NC(CO)C(O)CO)c1Br (centres unmarked) [Example 26, N,N'-bis-[2,4,6-tribromo-3,5-bis-[N-(1-hydroxymethyl-2,3-dihydroxypropyl)carbamoyl]phenyl]-N,N'-dimethylmalonamide] |  | 6.3 | substantially less influence on erythrocyte morphology than the iodinated reference substances | 0.51 | 13 - 23% | 400 | 370 | 
5 | CC(=O)N(CC(O)CO)c1c(I)c(C(=O)NCC(O)CO)c(I)c(C(=O)NCC(O)CO)c1I (centres unmarked) [Iohexol, 5-[N-(2,3-dihydroxypropyl)acetylamino]-2,4,6-triiodo-N,N'-bis-(2,3-dihydroxypropyl)isoph-thalamide, reference compound] |  |  |  | 1.31 |  |  |  | 
6 | CN(C(=O)CC(=O)N(C)c1c(I)c(C(=O)NC(CO)C(O)CO)c(I)c(C(=O)NC(CO)C(O)CO)c1I)c1c(I)c(C(=O)NC(CO)C(O)CO)c(I)c(C(=O)NC(CO)C(O)CO)c1I (centres unmarked) [Iotrolan, N,N'-bis-[2,4,6-triiodo-3,5-bis-[N-(1-hydroxymethyl-2,3-dihydroxypropyl)carbamoyl]phenyl]-N,N'-dimethylmalonamide, reference compound] |  | 8.5 |  | 0.69 |  | >400 | 320 | LD50 at 7 days (in vivo; Sprague-Dawley): 63000 µmol/kg
7 | CC(=O)N(CC(O)CO)c1c(Br)c(C(=O)NCC(O)CO)c(Br)c(C(=O)NCC(O)CO)c1Br (centres unmarked) [reference compound] | 908 | 4.6 |  |  |  | > 300 |  | LD50 at 7 days (in vivo): ~59000 µmol/kg
